# Results reported in publication PMC4381330, “Identification of a novel selective agonist of PPARγ with no promotion of adipogenesis and less inhibition of osteoblastogenesis” (Scientific Reports, 2015).
# What was measured:
# [1] = molecular target: T1, human PPARγ-LBD (corepressor peptide displacement) (Homo sapiens, UniProt P37231); test: LanthaScreen TR-FRET corepressor peptide displacement assay; assay type: biochemical
# T1 construct: incubated with GST-fused human PPARγ-LBD, terbium-labeled anti-GST antibody; purchased Invitrogen
# T1 sequence (P37231 238-503 limits assumed): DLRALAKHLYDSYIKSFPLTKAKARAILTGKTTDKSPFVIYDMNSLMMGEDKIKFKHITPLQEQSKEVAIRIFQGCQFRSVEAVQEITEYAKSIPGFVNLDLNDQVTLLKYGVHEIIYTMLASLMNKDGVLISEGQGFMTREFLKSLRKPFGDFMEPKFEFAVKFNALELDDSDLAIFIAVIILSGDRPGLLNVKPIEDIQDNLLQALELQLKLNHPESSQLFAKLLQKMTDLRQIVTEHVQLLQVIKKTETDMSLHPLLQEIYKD
# Method: PPARγ coregulator peptide interaction assay was performed by the LanthaScreen TR-FRET PPARγ Coactivator Assay Kit (Invitrogen) according to the manufacturer's instructions. Serial concentrations of compounds were incubated with GST-fused human PPARγ-LBD, terbium-labeled anti-GST antibody and fluorescein-labeled peptide for 4 h. The measurement and data calculation were as above.
# PPARα = molecular target: T2, PPARα (Homo sapiens, UniProt Q07869); test: Receptor-specific transactivation, GAL4-LBD reporter in HEK293T cells; assay type: cell-based; conditions: 30 μM F12016
# T2 construct: expressed in transfected cells; host or cells: HEK293T
# T2 sequence (Q07869 239-466 limits assumed): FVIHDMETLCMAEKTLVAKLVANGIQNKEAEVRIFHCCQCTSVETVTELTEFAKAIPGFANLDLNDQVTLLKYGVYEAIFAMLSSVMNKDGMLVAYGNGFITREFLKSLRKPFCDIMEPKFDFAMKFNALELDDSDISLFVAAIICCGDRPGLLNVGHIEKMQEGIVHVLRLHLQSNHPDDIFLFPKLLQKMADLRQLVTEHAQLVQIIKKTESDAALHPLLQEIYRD
# Method: (§1) HEK293T cells were cotransfected with a GAL4-pGL4-luc reporter and plasmids encoding various nuclear receptor LBDs fused with the GAL4 DNA-binding domain. […] LXR, liver X receptor; RXR, retinoid X receptor.
# (§2) The determination of nuclear receptor activation was performed as previously. Briefly, HEK293T cells were transfected with GAL4-pGL4-luc reporter plasmid and pBIND-PPARγ-LBD expression plasmid using Lipofectamine 2000 (Invitrogen) for 6 h before treatment with compounds for 20–24 h. Activity was determined by the Luciferase Assay System (Promega).
# LXRα = molecular target: T3, LXRα (Homo sapiens, UniProt Q13133); test: as above; assay type: cell-based; conditions: 30 μM F12016
# T3 construct: expressed in transfected cells; host or cells: HEK293T
# T3 sequence (Q13133 209-447 limits assumed): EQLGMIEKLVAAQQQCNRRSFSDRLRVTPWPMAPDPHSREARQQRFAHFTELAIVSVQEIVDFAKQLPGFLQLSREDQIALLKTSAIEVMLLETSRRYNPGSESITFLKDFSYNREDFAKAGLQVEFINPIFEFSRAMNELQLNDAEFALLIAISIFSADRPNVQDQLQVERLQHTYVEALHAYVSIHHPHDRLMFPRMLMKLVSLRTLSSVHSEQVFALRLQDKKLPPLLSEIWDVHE
# Method: as §1, §2
# [2] = molecular target: T4, CDK5 (substrate Rb protein) (Homo sapiens, UniProt Q00535); test: In vitro CDK5-mediated phosphorylation of Rb protein; assay type: biochemical
# T4 construct: purchased Millipore
# T4 sequence (Q00535 whole entry): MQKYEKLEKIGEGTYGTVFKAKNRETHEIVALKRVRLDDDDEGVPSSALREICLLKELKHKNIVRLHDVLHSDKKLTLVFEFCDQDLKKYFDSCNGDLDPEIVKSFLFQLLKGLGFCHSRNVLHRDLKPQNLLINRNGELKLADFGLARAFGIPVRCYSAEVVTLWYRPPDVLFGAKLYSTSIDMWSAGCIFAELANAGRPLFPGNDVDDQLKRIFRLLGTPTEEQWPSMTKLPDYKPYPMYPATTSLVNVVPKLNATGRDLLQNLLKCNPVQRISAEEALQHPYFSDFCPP
# T4 sequence (Q15078 99-307 partner limits assumed): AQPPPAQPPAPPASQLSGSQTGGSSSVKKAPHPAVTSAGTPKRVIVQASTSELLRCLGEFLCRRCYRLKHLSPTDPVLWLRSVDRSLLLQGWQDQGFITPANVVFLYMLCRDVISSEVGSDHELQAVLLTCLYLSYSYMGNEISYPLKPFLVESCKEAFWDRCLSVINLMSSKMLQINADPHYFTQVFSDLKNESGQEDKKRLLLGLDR
# human PPARγ LBD = molecular target: T5, human PPARγ LBD (Homo sapiens, UniProt P37231); test: LanthaScreen TR-FRET PPARγ competitive binding assay; conditions: purified human PPARγ LBD
# T5 construct: incubated with GST-fused human PPARγ-LBD, terbium-labeled anti-GST antibody; purchased Invitrogen
# T5 sequence (P37231 238-503 limits assumed): T1 sequence (P37231 238-503 limits assumed)
# Method: The LanthaScreen time-resolved fluorescence resonance energy transfer (TR-FRET) PPARγ competitive binding assay (Invitrogen) was performed according to the manufacturer's protocol. […] The FRET signal was measured by excitation at 340 nm and emission at 520 nm for fluorescein and 495 nm for terbium. In this assay, test compounds' binding to PPARγ LBD competed with Pan-PPAR Green and replaced it, resulting in a decrease of signal. The ability of binding to the PPARγ-LBD was measured by the decrease of the 520 nm/495 nm ratio. Graphs were plotted as fold changes of the FRET signal for compounds over the DMSO-only control.
# human PPARγ-LBD = molecular target: T6, human PPARγ-LBD (Homo sapiens, UniProt P37231); test: GAL4-PPARγ-LBD luciferase reporter gene assay in HEK293T cells; assay type: cell-based
# T6 construct: expressed in transfected cells; host or cells: HEK293T
# T6 sequence (P37231 172-476 isoform P37231-2): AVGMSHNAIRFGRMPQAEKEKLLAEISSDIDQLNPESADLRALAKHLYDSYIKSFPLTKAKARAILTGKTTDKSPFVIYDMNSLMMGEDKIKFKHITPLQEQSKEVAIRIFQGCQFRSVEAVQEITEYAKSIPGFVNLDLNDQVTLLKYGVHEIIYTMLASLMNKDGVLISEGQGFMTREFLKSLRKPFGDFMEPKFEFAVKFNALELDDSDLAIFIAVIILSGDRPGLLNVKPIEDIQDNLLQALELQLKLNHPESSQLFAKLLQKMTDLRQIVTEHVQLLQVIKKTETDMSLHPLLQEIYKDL
# Method: as §2
# [3] = molecular target: T7, CDK5-mediated phosphorylation of PPARγ at Ser273 (Homo sapiens, UniProt P37231); test: In vitro CDK5 assay of the PPARγ LBD (western blot); assay type: biochemical; conditions: to a similar extent as rosiglitazone
# T7 construct: 0.5 μg purified PPARγ-LBD protein was incubated with 50 ng CDK5/p25 kinase (Millipore); Millipore (CDK5/p25 only)
# T7 sequence (P37231 238-503 limits assumed): T1 sequence (P37231 238-503 limits assumed)
# Method: The in vitro CDK assay was performed as described previously. Briefly, 0.5 μg purified PPARγ-LBD protein was incubated with 50 ng CDK5/p25 kinase (Millipore) in CDK assay buffer (Cell Signaling Technology, Danvers, MA, USA), followed by addition of 50 μM ATP and incubation for 30 min at room temperature. PPARγ-LBD was pre-incubated with test compounds for 30 min before performing the reaction. Phosphorylation of PPARγ Ser273 was analyzed by western blotting with an anti-CDK substrate antibody to detect phosphor-serine in the consensus motif for CDK substrate proteins (K/R-S-P-K/R) (Cell Signaling Technology).
# 3T3-L1 adipocytes = test: 2-NBDG glucose uptake assay in mature 3T3-L1 adipocytes; assay type: cell-based, mouse; conditions: 1, 10, 30 μM, 24 h, 0.05 nM insulin, vs DMSO
# Method: Glucose uptake activity was determined by measuring the uptake of 2-NBDG (2-(N-(7-nitrobenz-2-oxa-1, 3-diazol-4-yl)amino)-2-deoxyglucose, Invitrogen). […] Glucose uptake was initiated by addition of 1 mM 2-NBDG diluted in PBS. After 1 h, it was terminated by removing the contents of the wells and washing the cells with PBS. The glucose uptake was quantified by measuring the fluorescence intensity of cell lysates (prepared with neutral lysis buffer) at 485 nm excitation and 528 nm emission, and normalized to the corresponding protein content.
substance,measurement,setting,value
"2-[2-(1, 2-dimethyl-1H-indol-3-yl)-2-oxo-acetylamino]-benzamide [Compound F12016]",EC50/IC50 NCoR,[1]; corepressor peptide NCoR,4.425 µM
same,Efficacy NCoR,"[1]; corepressor peptide NCoR, relative to rosiglitazone",91%
same,EC50/IC50 SMRT,[1]; corepressor peptide SMRT,2.861 µM
same,Efficacy SMRT,"[1]; corepressor peptide SMRT, relative to rosiglitazone",58%
same,displacement of corepressors NCoR and SMRT,"[1]; dose-dependent, similar degree as rosiglitazone",able to efficiently displace corepressors
same,transactivation of PPARα,PPARα,no effects
same,transactivation of LXRα,LXRα,no effects
same,phosphorylation of CDK5 substrate Rb protein,[2],no effect
same,IC50,human PPARγ LBD,36.3 µM
same,Ki,human PPARγ LBD,13 µM
same,transcriptional activity of PPARγ,"human PPARγ-LBD; 30 μM F12016, HEK293T",significantly induced transcriptional activity of PPARγ
same,maximal activation of GAL4-PPARγ,"human PPARγ-LBD; HEK293T, GAL4-PPARγ-LBD reporter",approximately 4 fold
same,EC50,"human PPARγ-LBD; HEK293T, GAL4-PPARγ-LBD reporter, read-out: PPARγ WT EC50 (activation of GAL4-PPARγ)",3.24 µM
same,PPARγ WT (RGZ %),human PPARγ-LBD; activation relative to rosiglitazone (RGZ),29.08%
same,concentration antagonizing rosiglitazone-dependent PPARγ activation,"human PPARγ-LBD; in presence of 1 μM rosiglitazone, reporter assay",≥ 2.5 µM
same,CDK5-mediated phosphorylation of PPARγ,[3],effectively blocked CDK5-mediated phosphorylation of PPARγ
same,insulin-stimulated glucose uptake (2-NBDG),3T3-L1 adipocytes,enhanced the insulin-stimulated glucose uptake
